Experimental data: PMC6407917, “Identification of GSK3186899/DDD853651 as a Preclinical Development Candidate for the Treatment of Visceral Leishmaniasis” (Journal of Medicinal Chemistry, 2018)

Key:
Assay in all cases: biochemical
Set-up in all cases: species or system HEK293/K-562/placenta mixed human extract; Kinobeads chemoproteomic competition binding, quantified by TMT LC-MS/MS, dose response up to 20 uM
MAP4K5 = MAP4K5 (Homo sapiens, UniProt Q9Y4K4)
ERBB4 = ERBB4 (Homo sapiens, UniProt Q15303)
NEK3 = NEK3 (Homo sapiens, UniProt P51956)
AAK1 = AAK1 (Homo sapiens, UniProt Q2M2I8)
AAK1, sequence (Q2M2I8 whole entry): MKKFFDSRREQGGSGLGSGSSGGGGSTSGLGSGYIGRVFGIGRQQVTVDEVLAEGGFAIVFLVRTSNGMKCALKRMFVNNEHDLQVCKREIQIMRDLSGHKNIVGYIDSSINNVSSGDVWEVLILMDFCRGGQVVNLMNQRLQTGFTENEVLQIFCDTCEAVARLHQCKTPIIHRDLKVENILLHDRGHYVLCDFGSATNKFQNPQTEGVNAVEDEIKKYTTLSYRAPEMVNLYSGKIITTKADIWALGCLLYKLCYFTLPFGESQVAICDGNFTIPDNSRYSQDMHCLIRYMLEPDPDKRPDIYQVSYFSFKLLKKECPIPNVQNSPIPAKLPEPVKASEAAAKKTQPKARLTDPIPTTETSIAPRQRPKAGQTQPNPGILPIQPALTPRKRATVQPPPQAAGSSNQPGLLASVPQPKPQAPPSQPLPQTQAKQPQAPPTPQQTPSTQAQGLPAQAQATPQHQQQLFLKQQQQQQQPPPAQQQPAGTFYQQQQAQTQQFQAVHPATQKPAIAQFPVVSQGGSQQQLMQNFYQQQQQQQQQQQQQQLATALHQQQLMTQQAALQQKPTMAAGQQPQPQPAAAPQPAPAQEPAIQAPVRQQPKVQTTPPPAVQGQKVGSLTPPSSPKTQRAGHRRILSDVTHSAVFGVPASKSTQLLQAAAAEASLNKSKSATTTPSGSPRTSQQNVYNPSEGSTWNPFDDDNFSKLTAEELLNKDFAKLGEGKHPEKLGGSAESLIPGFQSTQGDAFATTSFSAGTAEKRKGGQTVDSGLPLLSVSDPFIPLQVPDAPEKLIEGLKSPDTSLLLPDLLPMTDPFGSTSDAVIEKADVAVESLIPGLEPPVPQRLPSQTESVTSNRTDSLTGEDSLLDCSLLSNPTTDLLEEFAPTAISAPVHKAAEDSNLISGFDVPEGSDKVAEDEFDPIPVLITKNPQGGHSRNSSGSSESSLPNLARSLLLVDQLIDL

YWHAG = YWHAG (Homo sapiens, UniProt P61981)
YWHAG, sequence (P61981 whole entry): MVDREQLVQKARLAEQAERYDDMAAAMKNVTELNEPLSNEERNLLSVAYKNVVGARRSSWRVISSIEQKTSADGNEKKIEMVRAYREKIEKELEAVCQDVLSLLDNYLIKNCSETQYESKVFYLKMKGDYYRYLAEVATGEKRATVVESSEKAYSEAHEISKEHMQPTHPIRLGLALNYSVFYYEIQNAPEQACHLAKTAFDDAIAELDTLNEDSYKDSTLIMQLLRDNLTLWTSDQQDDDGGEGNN

CIT = CIT (Homo sapiens, UniProt O14578)
CSNK1G3 = CSNK1G3 (Homo sapiens, UniProt Q9Y6M4)
CSNK1G3, sequence (Q9Y6M4 whole entry): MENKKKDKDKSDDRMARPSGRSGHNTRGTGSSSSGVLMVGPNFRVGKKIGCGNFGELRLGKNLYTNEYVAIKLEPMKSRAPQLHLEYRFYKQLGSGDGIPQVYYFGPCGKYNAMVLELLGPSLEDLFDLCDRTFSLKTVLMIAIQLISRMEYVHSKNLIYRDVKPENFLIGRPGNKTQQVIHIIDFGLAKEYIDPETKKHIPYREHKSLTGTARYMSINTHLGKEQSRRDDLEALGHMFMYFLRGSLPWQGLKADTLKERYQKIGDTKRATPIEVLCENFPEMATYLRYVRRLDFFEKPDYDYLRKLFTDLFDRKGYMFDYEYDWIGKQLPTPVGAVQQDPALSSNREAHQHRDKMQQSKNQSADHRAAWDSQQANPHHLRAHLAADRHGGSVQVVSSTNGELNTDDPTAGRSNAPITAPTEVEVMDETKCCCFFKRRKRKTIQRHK

WEE1 = WEE1 (Homo sapiens, UniProt P30291)
IKBKE = IKBKE (Homo sapiens, UniProt Q14164)
PRKCB = PRKCB (Homo sapiens, UniProt P05771)
FN3K = FN3K (Homo sapiens, UniProt Q9H479)
PKN1 = PKN1 (Homo sapiens, UniProt Q16512)
NEK9 = NEK9 (Homo sapiens, UniProt Q8TD19)
ARAF = ARAF (Homo sapiens, UniProt P10398)
ARAF, sequence (P10398 whole entry): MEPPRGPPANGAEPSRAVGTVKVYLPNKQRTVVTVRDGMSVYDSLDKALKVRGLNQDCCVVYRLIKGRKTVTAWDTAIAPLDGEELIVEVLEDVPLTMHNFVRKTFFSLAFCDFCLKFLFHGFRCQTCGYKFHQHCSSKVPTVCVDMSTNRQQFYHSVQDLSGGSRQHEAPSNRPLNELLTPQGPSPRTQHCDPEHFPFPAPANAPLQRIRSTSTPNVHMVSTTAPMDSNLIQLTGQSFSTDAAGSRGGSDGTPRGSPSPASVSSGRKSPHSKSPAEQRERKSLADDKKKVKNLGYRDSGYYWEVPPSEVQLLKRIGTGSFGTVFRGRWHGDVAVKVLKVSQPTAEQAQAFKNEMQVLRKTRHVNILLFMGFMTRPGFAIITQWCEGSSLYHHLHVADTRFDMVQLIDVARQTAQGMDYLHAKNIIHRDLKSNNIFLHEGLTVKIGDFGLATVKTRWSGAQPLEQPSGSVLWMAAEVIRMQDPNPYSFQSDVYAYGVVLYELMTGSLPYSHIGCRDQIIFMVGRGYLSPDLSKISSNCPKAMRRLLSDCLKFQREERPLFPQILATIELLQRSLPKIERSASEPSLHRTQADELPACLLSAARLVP

FGFR1 = FGFR1 (Homo sapiens, UniProt P11362)
FGFR1, sequence (P11362 whole entry): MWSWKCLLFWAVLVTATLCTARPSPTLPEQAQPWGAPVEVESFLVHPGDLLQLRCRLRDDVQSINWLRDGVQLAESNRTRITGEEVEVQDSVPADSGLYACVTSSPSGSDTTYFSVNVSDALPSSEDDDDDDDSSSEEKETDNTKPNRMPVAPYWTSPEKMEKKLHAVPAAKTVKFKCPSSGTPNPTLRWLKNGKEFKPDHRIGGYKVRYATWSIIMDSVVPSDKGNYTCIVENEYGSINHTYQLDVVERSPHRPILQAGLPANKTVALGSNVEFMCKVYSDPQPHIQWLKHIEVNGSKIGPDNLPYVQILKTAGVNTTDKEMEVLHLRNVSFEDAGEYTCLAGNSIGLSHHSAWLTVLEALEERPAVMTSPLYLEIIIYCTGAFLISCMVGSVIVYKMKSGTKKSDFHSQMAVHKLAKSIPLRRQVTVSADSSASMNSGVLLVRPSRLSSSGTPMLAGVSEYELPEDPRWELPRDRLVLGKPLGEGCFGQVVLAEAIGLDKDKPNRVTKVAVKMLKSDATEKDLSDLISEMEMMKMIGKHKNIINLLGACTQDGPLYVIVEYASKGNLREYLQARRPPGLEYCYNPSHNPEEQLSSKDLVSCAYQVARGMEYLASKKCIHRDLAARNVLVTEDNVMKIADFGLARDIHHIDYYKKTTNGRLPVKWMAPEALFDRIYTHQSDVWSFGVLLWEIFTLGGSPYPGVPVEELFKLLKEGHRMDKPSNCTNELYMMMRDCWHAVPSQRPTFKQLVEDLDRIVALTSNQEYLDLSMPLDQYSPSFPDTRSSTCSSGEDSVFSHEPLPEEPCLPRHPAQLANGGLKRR

FLT4 = FLT4 (Homo sapiens, UniProt P35916)
FLT4, sequence (P35916 whole entry): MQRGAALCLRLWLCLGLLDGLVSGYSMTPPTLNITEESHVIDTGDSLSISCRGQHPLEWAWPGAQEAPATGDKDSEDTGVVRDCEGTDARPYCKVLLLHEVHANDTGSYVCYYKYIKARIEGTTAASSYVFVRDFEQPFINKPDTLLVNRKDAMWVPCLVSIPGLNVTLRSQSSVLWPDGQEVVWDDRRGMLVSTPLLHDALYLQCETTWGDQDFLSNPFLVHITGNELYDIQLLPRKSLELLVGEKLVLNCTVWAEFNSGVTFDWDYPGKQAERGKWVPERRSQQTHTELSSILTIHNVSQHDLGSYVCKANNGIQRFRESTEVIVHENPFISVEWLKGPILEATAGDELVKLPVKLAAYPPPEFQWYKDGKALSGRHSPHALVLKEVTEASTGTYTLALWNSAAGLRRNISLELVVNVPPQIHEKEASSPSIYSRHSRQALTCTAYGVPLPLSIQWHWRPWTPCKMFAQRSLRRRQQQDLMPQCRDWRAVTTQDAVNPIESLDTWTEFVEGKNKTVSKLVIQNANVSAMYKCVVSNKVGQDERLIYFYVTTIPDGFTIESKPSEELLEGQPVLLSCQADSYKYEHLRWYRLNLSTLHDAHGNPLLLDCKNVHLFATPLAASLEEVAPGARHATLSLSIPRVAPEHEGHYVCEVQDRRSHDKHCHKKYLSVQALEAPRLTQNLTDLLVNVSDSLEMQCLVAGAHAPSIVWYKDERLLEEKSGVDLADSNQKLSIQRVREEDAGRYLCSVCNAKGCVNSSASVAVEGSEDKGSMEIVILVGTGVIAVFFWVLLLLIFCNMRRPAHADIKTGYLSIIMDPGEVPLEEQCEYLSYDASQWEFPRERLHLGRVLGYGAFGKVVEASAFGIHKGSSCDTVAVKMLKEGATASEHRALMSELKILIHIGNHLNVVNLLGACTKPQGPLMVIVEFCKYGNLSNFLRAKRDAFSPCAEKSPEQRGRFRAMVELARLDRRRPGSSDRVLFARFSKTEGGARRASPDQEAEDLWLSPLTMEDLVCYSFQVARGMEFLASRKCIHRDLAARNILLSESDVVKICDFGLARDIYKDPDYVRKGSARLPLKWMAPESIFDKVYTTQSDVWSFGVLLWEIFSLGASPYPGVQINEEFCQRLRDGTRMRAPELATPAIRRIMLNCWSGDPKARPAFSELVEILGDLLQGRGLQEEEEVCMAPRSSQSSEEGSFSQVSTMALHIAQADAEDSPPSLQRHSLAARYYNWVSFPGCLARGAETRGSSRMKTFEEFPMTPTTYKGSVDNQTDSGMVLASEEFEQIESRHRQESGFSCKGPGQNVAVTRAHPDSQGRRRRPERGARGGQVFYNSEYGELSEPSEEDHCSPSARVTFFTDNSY

MAP2K4 = MAP2K4 (Homo sapiens, UniProt P45985)
FYN = FYN (Homo sapiens, UniProt P06241)
MAP3K2 = MAP3K2 (Homo sapiens, UniProt Q9Y2U5)
MAP3K2, sequence (Q9Y2U5 whole entry): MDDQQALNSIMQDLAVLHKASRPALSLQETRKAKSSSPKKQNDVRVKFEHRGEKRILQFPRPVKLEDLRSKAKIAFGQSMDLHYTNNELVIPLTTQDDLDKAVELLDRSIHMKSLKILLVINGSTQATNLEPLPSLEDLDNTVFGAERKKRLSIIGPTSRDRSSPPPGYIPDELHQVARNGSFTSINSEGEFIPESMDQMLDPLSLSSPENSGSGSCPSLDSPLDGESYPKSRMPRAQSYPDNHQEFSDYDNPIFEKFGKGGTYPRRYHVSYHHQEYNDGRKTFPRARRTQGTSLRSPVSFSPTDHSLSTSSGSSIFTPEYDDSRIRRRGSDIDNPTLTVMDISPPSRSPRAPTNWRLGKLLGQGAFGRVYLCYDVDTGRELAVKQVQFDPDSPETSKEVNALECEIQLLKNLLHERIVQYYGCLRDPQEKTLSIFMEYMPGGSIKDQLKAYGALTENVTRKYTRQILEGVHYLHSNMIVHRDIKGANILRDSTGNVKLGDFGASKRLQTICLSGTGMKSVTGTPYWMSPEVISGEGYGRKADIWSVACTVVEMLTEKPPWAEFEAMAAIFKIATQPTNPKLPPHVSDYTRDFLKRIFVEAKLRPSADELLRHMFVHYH

MAP3K6 = MAP3K6 (Homo sapiens, UniProt O95382)
YES1 = YES1 (Homo sapiens, UniProt P07947)

Measured: IC50

COc1ccccc1-c1n[nH]c2nc(N[C@H]3CC[C@H](NS(=O)(=O)CCC(F)(F)F)CC3)nc(OC)c12 [compound 31, 3,3,3-Trifluoro-N-(trans-4-((4-methoxy-3-(2-methoxyphenyl)-1H-pyrazolo[3,4-d]pyrimidin-6-yl)amino)cyclohexyl)propane-1-sulfonamide]
≥ 20 µM: all assays above
